Assay results: patent publication US5081289A, “Synthesis and isolation of nopaline and its analogues” (The University of Alabama in Birmingham, priority 1989, dated 1992)
≈ marks a conversion by molar mass, not a printed value. Like-named read-outs stand apart in the source and are kept apart here.

Key:
[1] = test system: A. tumefaciens (strain C-58); assay: Growth of A. tumefaciens (turbidity A650, doubling time) with compound as source of carbon and nitrogen; format: cell-based; conditions: for Doubling Time: 0.0045 g/ml in control medium; for utilization as a source of carbon and nitrogen: preinduced and uninduced bacteria
Method: The minimal medium for bacterial growth was the mineral salt mixture described by Petit and Tempe, hereinbefore cited to which glucose was aded to make the final concentration 0.005 g/ml. The control medium was the mineral salt mixture from which the ammonium sulfate was omitted. In order to test whether they would support bacterial growth either nopaline, isonopaline, or the pyrrolidonecarboxylic acid derivative of nopaline or pyronopaline were added separately to the control medium to make the final concentration 0.0045 g/ml.
A single colony from a plate on minimal medium was adapted to liquid medium that contained nopaline. When visibly turbid, the nopaline liquid culture was innoculated (1% innoculum) into minimal liquid medium and into nopaline liquid medium. When turbid, these two cultures were used as inoculum to test the nopaline, isonopaline and pyronopaline in liquid culture media (20 ml in 125 ml flasks). After innoculation (1%), cultures were agitated on a rotary shaker at 1 cycle per second, and growth was monitored by measurement of the turbidity in a spectrophotometer. The turbidity (A650) readings were plotted on log paper and the doubling time was determined from the logarithmic portion of the growth curve (Table II).
Table II contains the results of experiments to test the ability of A. tumefaciens (strain C-58) to utilize the isomers and derivatives of nopaline as a source of carbon and nitrogen. […] The results are the same for both preinduced and uninduced bacteria. As expected the doubling time in minimal medium is greater than that in either nopaline or pyronopaline, since metabolism by the organism is more complex in the […] medium.

[2] = Solubility in H2O; format: physicochemical; conditions: water, 22° C.
[3] = Stability in bacteria-free tumor extract; format: physicochemical; conditions: pH 5.3, 10 days, room temperature
[4] = Reverse reaction (stability) of the pyrrolidonecarboxylic acid derivative of nopaline at 100° C.; format: physicochemical; conditions: 100° C. in NaOH, Na2CO3 (both at 0.1M), or HCl (3M)
[5] = test system: octopine dehydrogenase; conditions: known substrate specificity; cited from earlier work
[6] = test system: octopine dehydrogenase; assay: Oxidation catalyzed by octopine dehydrogenase; format: biochemical, scallops (Pecten maximus); conditions: nopaline / isonopaline as substrate
[7] = Conversion (cyclization) of nopaline / isonopaline to the pyro-derivatives; rate of formation; format: physicochemical; conditions: for cyclization: above pH 5.5; for reaction rate constant: conversion to pyro-derivative; for first order rate constant, formation of pyrrolidonecarboxylic acid derivative: pH 3.2, 60° C.; for time to completion of conversion to the pyrrolidonecarboxylic acid derivative: pH 3.2, 120° C. (autoclave)

| SMILES | Doubling Time ([1]; Preinduced Innoculum) | Doubling Time ([1]; Uninduced Innoculum) | utilization as a source of carbon and nitrogen [1] | solubility [2] | change of concentration in tumor extract [3] | reverse reaction [4] | oxidation catalyzed by octopine dehydrogenase [5] | oxidation catalyzed by octopine dehydrogenase [6] | relative rate of reaction of nopaline vs isonopaline ([7]; 22° C. and 100° C.) | time of conversion to the pyro-derivative ([7]; 60° C.) | time for completed conversion to the pyro-derivative ([7]; 100° C., pH 0.0) | time for quantitative conversion to the pyro-derivative ([7]; 100° C., pH 3.2) | time of conversion to the pyro-derivative ([7]; 121° C.) | cyclization [7] | reaction rate constant [7] | first order rate constant, formation of pyrrolidonecarboxylic acid derivative [7] | time to completion of conversion to the pyrrolidonecarboxylic acid derivative [7] | conversion to the pyro-derivatives ([7]; pH above approximately 5.5, 48 hours at 100° C.) | time for completed conversion to the pyro-derivative ([7]; 60° C., pH 3.2) |
| --- | --- | --- | --- | --- | --- | --- | --- | --- | --- | --- | --- | --- | --- | --- | --- | --- | --- | --- | --- |
| N=C(N)NCCC[C@@H](C(=O)O)N1C(=O)CC[C@@H]1C(=O)O [Pyronopaline, N-(4-((aminoiminomethyl)amino)-1S-carboxybutyl)-2-pyrrolidone-5R-carboxylic acid] | 3.1 h | 3.1 h | metabolized | 34.5 mg/mL (≈ 121 mM) | did not change | No significant reverse reaction | – | – | – | – | – | – | – | – | – | – | – | – | – |
| C[C@@H](N[C@@H](CCCNC(=N)N)C(=O)O)C(=O)O [D-octopine] | – | – | – | – | – | – | catalyzes the oxidation of D-octopine | – | – | – | – | – | – | – | – | – | – | – | – |
| C[C@H](N[C@@H](CCCNC(=N)N)C(=O)O)C(=O)O [L-allooctopine] | – | – | – | – | – | – | not of L-allooctopine | – | – | – | – | – | – | – | – | – | – | – | – |
| N=C(N)NCCC[C@H](N[C@H](CCC(=O)O)C(=O)O)C(=O)O [Nopaline, N-(4-((aminoiminomethyl)amino-)-1S-carboxybutyl)-2R-2-pentanedioic acid] | 2.8 h | 2.8 h | metabolized | 6.3 mg/mL (≈ 20.7 mM) | did not change | – | – | catalyzed the oxidation of nopaline | faster reaction | 18 to 24 h | approximately 1.0 hours | approximately 2 hours | approximately 30 minutes | neither nopaline nor isonopaline is demonstrable | 4.6e-07 s⁻¹ | 4.6×10^-7 S^-1 | 30 min | too slow to be readily measured | – |
| N=C(N)NCCC[C@H](N[C@@H](CCC(=O)O)C(=O)O)C(=O)O [Isonopaline] | no growth | no growth | completely ineffective | 21.3 mg/mL (≈ 70 mM) | – | – | – | not that of isonopaline | – | – | – | – | – | neither nopaline nor isonopaline is demonstrable | 3.5e-08 s⁻¹ | 0.35×10^-7 S^-1 | 30 min | – | approximately 100 hours |
